# Measurements reported in the supplement of paper PMC10307832.
# Key:
# Experiment in all cases: relative viability (nuclei count vs DMSO), 5 days (fraction); higher = more cells survive
# Sunitinib + Pemetrexed = compound: CCN(CC)CCNC(=O)c1c(C)[nH]c(/C=C2\C(=O)Nc3ccc(F)cc32)c1C [Sunitinib] + Nc1nc2[nH]cc(CCc3ccc(C(=O)N[C@@H](CCC(=O)O)C(=O)O)cc3)c2c(=O)[nH]1 [Pemetrexed] (partner 0.2 µM)
# Method in brief: (§1)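 The day after seeding in 1536-well plates, lung cancer cell lines were treated by pin tool with a single drug, or with a fixed anchor-drug dose together with five library-drug doses (not always all listed) in √10 steps. After 5 days, a combined fix-and-stain solution (final 0.05% Triton X-100, 1% formaldehyde, 1 ug/ml Hoechst) was added. Nuclei counted on 4× images gave relative viability as treated counts over vehicle counts, reported as the median of duplicate plates.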
# Sunitinib + Lapatinib = compound: CCN(CC)CCNC(=O)c1c(C)[nH]c(/C=C2\C(=O)Nc3ccc(F)cc32)c1C [Sunitinib] + CS(=O)(=O)CCNCc1ccc(-c2ccc3ncnc(Nc4ccc(OCc5cccc(F)c5)c(Cl)c4)c3c2)o1 [Lapatinib] (partner 2 µM)
# Method in brief: as §1
# Sunitinib + Dasatinib = compound: CCN(CC)CCNC(=O)c1c(C)[nH]c(/C=C2\C(=O)Nc3ccc(F)cc32)c1C [Sunitinib] + Cc1nc(Nc2ncc(C(=O)Nc3c(C)cccc3Cl)s2)cc(N2CCN(CCO)CC2)n1 [Dasatinib] (partner 0.075 µM)
# Method in brief: as §1
# Sunitinib + Crizotinib = compound: CCN(CC)CCNC(=O)c1c(C)[nH]c(/C=C2\C(=O)Nc3ccc(F)cc32)c1C [Sunitinib] + C[C@@H](Oc1cc(-c2cnn(C3CCNCC3)c2)cnc1N)c1c(Cl)ccc(F)c1Cl [Crizotinib] (partner 1 µM)
# Method in brief: as §1
Cell Line,relative viability (Sunitinib + Pemetrexed; first compound 0.02 µM),relative viability (Sunitinib + Pemetrexed; first compound 0.06325 µM),relative viability (Sunitinib + Pemetrexed; first compound 0.2 µM),relative viability (Sunitinib + Pemetrexed; first compound 0.6325 µM),relative viability (Sunitinib + Pemetrexed; first compound 2 µM),relative viability (Sunitinib + Lapatinib; first compound 0.02 µM),relative viability (Sunitinib + Lapatinib; first compound 0.06325 µM),relative viability (Sunitinib + Lapatinib; first compound 0.2 µM),relative viability (Sunitinib + Lapatinib; first compound 0.6325 µM),relative viability (Sunitinib + Lapatinib; first compound 2 µM),relative viability (Sunitinib + Dasatinib; first compound 0.02 µM),relative viability (Sunitinib + Dasatinib; first compound 0.06325 µM),relative viability (Sunitinib + Dasatinib; first compound 0.2 µM),relative viability (Sunitinib + Dasatinib; first compound 0.6325 µM),relative viability (Sunitinib + Dasatinib; first compound 2 µM),relative viability (Sunitinib + Crizotinib; first compound 0.02 µM),relative viability (Sunitinib + Crizotinib; first compound 0.06325 µM),relative viability (Sunitinib + Crizotinib; first compound 0.2 µM),relative viability (Sunitinib + Crizotinib; first compound 0.6325 µM),relative viability (Sunitinib + Crizotinib; first compound 2 µM)
LOU-NH91,0.388,0.38,0.389,0.382,0.448,0.732,0.839,0.828,0.816,0.764,0.576,0.564,0.615,0.648,0.644,0.733,0.732,0.789,0.71,0.746
HCC-15,0.236,0.228,0.222,0.204,0.248,0.855,0.9,0.91,0.826,0.829,0.549,0.709,0.726,0.66,0.598,0.761,0.84,0.958,0.86,0.859
HCC-827,0.265,0.29,0.28,0.584,0.289,0.191,0.198,0.198,0.222,0.215,0.259,0.284,0.336,0.279,0.342,0.911,0.964,0.965,0.939,0.947
NCI-H1734,0.406,0.426,0.396,0.411,0.411,0.968,1.16,1.35,1.18,1.05,0.456,0.43,0.503,0.451,0.46,0.645,0.738,0.866,0.746,0.724
NCI-H322M,0.654,0.601,0.652,0.62,0.577,0.594,0.649,0.583,0.655,0.633,0.257,0.264,0.293,0.265,0.253,0.845,0.891,0.951,0.891,1.08
SW 1573,0.867,,0.9,0.958,0.943,1.19,1.3,1.31,1.14,,0.464,0.55,0.64,0.526,0.391,0.736,0.855,,0.976,0.792
NCI-H2126,0.628,0.826,0.777,0.786,0.751,0.677,0.781,0.808,0.809,0.807,0.601,0.67,0.636,0.719,0.638,1.01,1.04,1.07,1.01,1.01
201T,0.32,0.325,0.356,0.301,0.355,,1.08,1.02,1.05,1.04,0.542,0.56,0.57,0.571,0.528,0.981,0.978,1.03,1.02,1.06
NCI-H2009,1.03,1.01,1.1,1.08,1.12,0.929,1.34,0.995,,1.18,0.291,0.379,0.288,0.393,0.309,1.01,1.03,1.16,1.13,1.04
NCI-H2087,0.711,0.693,0.559,0.626,0.693,,1.11,1.01,1.26,1.03,0.717,1.25,1,0.945,0.669,0.909,1.09,1.15,0.967,0.791
CAL-12T,1.06,1.17,1.17,,1.34,0.687,0.77,0.67,0.807,0.665,0.36,0.446,0.442,0.468,0.332,0.564,0.735,0.623,0.791,0.582
UMC-11,0.669,0.838,0.843,0.885,0.772,0.984,,1.07,1.03,0.967,0.454,0.525,0.584,0.525,0.424,0.578,0.569,0.571,0.692,0.556
NCI-H1793,,,1.29,0.949,0.831,,0.675,0.828,0.651,0.484,0.397,0.366,0.429,0.444,0.346,,,,,
SK-LU-1,0.944,1,1.1,1.12,0.884,0.942,0.853,1.06,1.02,0.809,0.179,0.185,0.176,0.171,0.161,0.902,0.815,0.969,0.884,0.67
